The text below walks through data of ChEMBL document CHEMBL1201862, “PubChem BioAssay data set” (2004).

Test systems include NCI/ADR-RES; SNB-19; LOX IMVI; A549; HCT-15; COLO 205; MDA-MB-231; OVCAR-5; SK-OV-3; HOP-92; A498; IGROV-1; SK-MEL-2; U-251; M14; SK-MEL-28; OVCAR-8; NCI-H23; RXF 393.
Holding throughout (test): DTP human tumour cell line panel, 48 h

Values joined by “and” are separate entries in the source; they are usually repeats but may differ in a detail not shown here. Identical values can stand only once.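 Interpolation was linear, between the two tested concentrations surrounding the appropriate level; five concentrations were tested over 48 hours in 96-well plates. Abbreviation: GI50, concentration required for 50% inhibition of growth.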 Active and inactive are the calls of the source. No stated cut-off is given here; in the data, active = GI50 up to about 1.1 µM and inactive = higher.

In general, GI50 refers to the concentration that inhibits growth by half. Take `CN(CCc1ccc(Cl)c(Cl)c1)CCN(C)CCN1CCCC1`: the GI50 is 25.4 µM (inactive) in the experiment with NCI/ADR-RES; 17.4 µM (inactive) in the experiment with SNB-19; 4.76 µM (inactive) in the experiment on LOX IMVI; 10.5 µM (inactive) in the experiment on A549; 14.5 µM with HCT-15; 2.23 µM (inactive) in the experiment on COLO 205. The GI50 with MDA-MB-231 is 8.99 µM (inactive); in the experiment on OVCAR-5 it was 18.6 µM (inactive); in the experiment with SK-OV-3, 21.2 µM (inactive); in the experiment on HOP-92, 3.66 µM (inactive); in the experiment on A498, 13.1 µM (inactive); in the experiment with IGROV-1 it was 17.7 µM (inactive). In addition, the GI50 in the experiment with SK-MEL-2 was 3.33 µM (inactive); in the experiment with U-251, 10.4 µM (inactive); in the experiment on M14, 4.86 µM (inactive); in the experiment on SK-MEL-28 it was 1.64 µM (inactive); with OVCAR-8, 21.7 µM (inactive); with NCI-H23, 14.2 µM (inactive). Further, in the experiment with RXF 393, the GI50 was 10 µM (inactive).

For `CNC(=O)OCC1=C(COC(=O)NC)C(C)N(c2ccc(OC)cc2)C1` (stereo not drawn), the GI50 in the experiment on NCI/ADR-RES was 60.4 µM (inactive); with SNB-19, > 100 µM (inactive); in the experiment on LOX IMVI it was > 100 µM (inactive); with A549, > 100 µM (inactive); in the experiment on HCT-15 it was above 100 µM; with COLO 205 it was 59 µM (inactive). Moreover, the GI50 is > 100 µM (inactive) with MDA-MB-231; 24.1 µM (inactive) in the experiment on OVCAR-5; > 100 µM (inactive) with SK-OV-3; > 100 µM (inactive) with HOP-92; 0.351 µM (active) in the experiment on A498; 29 µM (inactive) in the experiment on IGROV-1. Besides, the GI50 in the experiment with SK-MEL-2 is > 100 µM (inactive); in the experiment on U-251 it was 22.4 µM (inactive); with M14, 69.5 µM (inactive); in the experiment with SK-MEL-28, > 100 µM (inactive); with OVCAR-8, 80.4 µM (inactive); with NCI-H23 it was 68.9 µM (inactive). Besides, in the experiment with RXF 393, the GI50 is 54.6 µM (inactive).

For `Cc1ccc(NC(=O)/C(Cc2cc(=O)oc3cc(O)ccc23)=N\NC(=O)C[N+](C)(C)C)cc1C`, the GI50 in the experiment with NCI/ADR-RES is > 100 µM (inactive); in the experiment with SNB-19 it was > 100 µM (inactive); with LOX IMVI it was > 100 µM (inactive); in the experiment with A549 it was > 100 µM (inactive); in the experiment on HCT-15 it was above 100 µM; in the experiment on COLO 205, > 100 µM (inactive). Moreover, the GI50 with MDA-MB-231, in the experiment with OVCAR-5, in the experiment with SK-OV-3, in the experiment on HOP-92, in the experiment on A498 and in the experiment with IGROV-1 was > 100 µM (inactive) throughout. In addition, the GI50 with SK-MEL-2, with U-251, in the experiment with M14, in the experiment on SK-MEL-28, in the experiment on OVCAR-8 and in the experiment on NCI-H23 was > 100 µM (inactive) each time. The GI50 in the experiment with RXF 393 was 66.2 µM (inactive).

With `CSc1nc2ccccc2c(=O)n1/N=C1\C(=O)N(CN2CCCCC2)c2ccc(Cl)cc21`, the GI50 with NCI/ADR-RES was 34.8 µM (inactive); in the experiment on SNB-19, 61.5 µM (inactive); with LOX IMVI, 14.2 µM (inactive); with A549 it was 37.2 µM (inactive); with HCT-15, 13.3 µM; in the experiment on COLO 205, 17.9 µM (inactive). The GI50 in the experiment on MDA-MB-231 is 55.1 µM (inactive); with OVCAR-5, 64.6 µM (inactive); with SK-OV-3, 27.4 µM (inactive); in the experiment on HOP-92 it was 32.9 µM (inactive); in the experiment with A498 it was 27.8 µM (inactive); in the experiment on IGROV-1, 13.5 µM (inactive). Also, the GI50 in the experiment on SK-MEL-2 is 19.5 µM (inactive); in the experiment on U-251, 33.3 µM (inactive); with M14, 30.5 µM (inactive); in the experiment on SK-MEL-28 it was 60.5 µM (inactive); with OVCAR-8, 37.2 µM (inactive); with NCI-H23 it was 28.4 µM (inactive). Besides, the GI50 in the experiment with RXF 393 was 17.5 µM (inactive).

As for `COc1ccc(/C=N/NS(=O)(=O)c2ccc(/C=C3\NC(=O)NC3=O)cc2)cc1`, the GI50 with NCI/ADR-RES is > 100 µM (inactive); in the experiment with SNB-19, 90.8 µM (inactive); in the experiment on LOX IMVI, > 100 µM (inactive); in the experiment on A549, > 100 µM (inactive); in the experiment on HCT-15, above 100 µM; with COLO 205 it was > 100 µM (inactive). In addition, the GI50 in the experiment on MDA-MB-231 is 11.2 µM (inactive); in the experiment on OVCAR-5, > 100 µM (inactive); in the experiment on SK-OV-3, 73.5 µM (inactive); in the experiment on HOP-92, > 100 µM (inactive); with A498 it was > 100 µM (inactive); with IGROV-1, 87.5 µM (inactive). Also, the GI50 with SK-MEL-2 is > 100 µM (inactive); with U-251, 45.2 µM (inactive); in the experiment on M14, > 100 µM (inactive); with SK-MEL-28 it was > 100 µM (inactive); in the experiment with OVCAR-8, 51.5 µM (inactive); with NCI-H23, > 100 µM (inactive). Also, the GI50 in the experiment on RXF 393 is > 100 µM (inactive).

In the case of `O=C1N/C(=N/N=C\C(O)C(O)C(O)C(O)CO)N/C1=C/c1ccc(Cl)cc1` (stereo not drawn), the GI50 in the experiment on NCI/ADR-RES was > 100 µM (inactive); in the experiment with SNB-19, > 100 µM (inactive); in the experiment on LOX IMVI it was > 100 µM (inactive); with A549, > 100 µM (inactive); in the experiment with HCT-15 it was 76 µM and 50.6 µM; in the experiment on COLO 205, > 100 µM (inactive). For the same compound, the GI50 with MDA-MB-231, in the experiment with OVCAR-5, in the experiment on SK-OV-3, in the experiment with HOP-92, in the experiment with A498 and with IGROV-1 was > 100 µM (inactive) throughout. Besides, the GI50 in the experiment with SK-MEL-2, in the experiment on U-251, with M14, with SK-MEL-28, with OVCAR-8 and in the experiment on NCI-H23 was > 100 µM (inactive) in each case. Moreover, the GI50 with RXF 393 is > 100 µM (inactive).

For `C[C@]12CCC(=O)C=C1C[C@@H](O)[C@@H]1[C@@H]2CC[C@@]2(C)[C@H]1CC[C@]2(C)O`, the GI50 with NCI/ADR-RES was > 100 µM (inactive); with SNB-19 it was > 100 µM (inactive); in the experiment with LOX IMVI, > 100 µM (inactive); in the experiment on A549 it was > 100 µM (inactive); in the experiment with HCT-15 it was above 100 µM; in the experiment with COLO 205 it was > 100 µM (inactive). The GI50 in the experiment on MDA-MB-231, with OVCAR-5, with SK-OV-3, in the experiment with HOP-92, in the experiment on A498 and in the experiment with IGROV-1 was > 100 µM (inactive) throughout. The GI50 with SK-MEL-2, with U-251, in the experiment with M14, with SK-MEL-28, with OVCAR-8 and in the experiment with NCI-H23 was > 100 µM (inactive) in each case. Besides, the GI50 with RXF 393 is > 100 µM (inactive).
